Laboratory results from patent publication US20220257774A1, “AROMATIC AMINE AR AHD BET TARGETING PROTEIN DEGRADATION CHIMERA COMPOUND AND USE” (HINOVA PHARMACEUTICALS INC., priority 2019, published 2022).
Like-named read-outs stand apart in the source and are kept apart here.

What was measured:
Type in all cases: cell-based
BRD4 = target: T1, BRD4 (Homo sapiens, UniProt O60885); test: Down-regulation/degradation of BRD4 determined by Western blot in CWR22RV1 cells; details: concentration 100 nM, 24 h
T1 construct: CWR22RV1 cells were subcultured in cell culture media; endogenous in cells; host or cells: CWR22RV1 cells
Procedure: (§1) The Down-Regulation on the Protein Expression of Androgen Receptors AR and Brd4 Determined by Western Blot CWR22RV1 cells (National Collection of Authenticated Cell Cultures. TCHu100) FBS (Gibco, Cat. No. 10099-141) 0.01M PBS (Biosharp. Cat. No. 162262) RIPM1640 (Hyclone, Cat. No. 308090.01) Penicillin-Streptomycin (Hyclone. Cat. No. SV30010) DMSO (Sigma. Cat. No. D5879) Centrifuge tube, 15 ml (Excell Bio. Cat. No. CS015-0001) Cell culture plate (Excell Bio. Cat. No. CS016-0128) 6-well cell culture cluster (Corning, Cat. No. 3516) RIPA lysate buffer (Beyotime, Cat. No. P0013B) Protein loading buffer (Beyotime, Cat. No. P0015L) CA protein assay kit (Beyotime, Cat. No. P0012) SDS-PAGE gel preparation kit (Chengdu Baihe Technology Co., Ltd. Cat. No. PG112) Anti-β-tubulin mouse mAb (Zen Bioscience, Cat. No. 200608) Androgen Receptor ([…]) XP Rabbit mAb (CST. Cat. No. 5153) Anti-cMyc(D3N8F) Rabbit mAb (CST. Cat. No. 13987) Anti-BRD4(E2A7X) rabbit mAb (CST, Cat. No. 13440) Peroxidase Affinipure(HRP) Goat Anti-Mouse IgG (Zen Bioscience, Cat. No. 511103) Peroxidase Affinipure(HRP) Goat Anti-Rabbit IgG (Zen Bioscience, Cat. No. 511203) TBST (Biosharp. Cat. No. B[…]) ECL chemiluminescence kit (Beyotime, Cat. No. […]1 cells were subcultured in cell culture media, and then the cells in good growth condition were seeded in a 6-well plate at 2 ml/well (1×10^6 cells/well), and cultured overnight in a 37° C., 5% CO2 cell incubator. 2) The drug was prepared as a 10 mM stock solution with dimethyl sulfoxide (DMSO). […] The plate was gently tapped to thoroughly mix. In addition, the experiment included negative control wells (containing equal amount of DMSO) and positive control wells. 3) After culturing 24 hi, the cells were lysed with RIPA cell lysate, and the protein was extracted. […] The first antibody (Androgen Receptor ([…]) XP Rabbit mAb. Anti-cMyc(D3N8F) Rabbit mAb, Anti-BRD4(E2A7X) rabbit mAb and Anti-β-Tubulin Mouse mAb) was added and incubated overnight at 4° C. The membrane was rinsed with TBST solution three times, 10 min for each time. The secondary antibody (horseradish peroxidase labeled goat anti mouse IgG) was added and incubated at room temperature for 2 h, and then the membrane was washed with TBST solution three times, 10 m for each time. Finally. ECL chemiluminescence solution was added, and then photos were taken with automatic chemiluminescence instrument to collect pictures for analysis.

LNCaP/AR cells = test: Inhibition of the proliferation of LNCap/AR cells (CCK-8); details: 144 h, read-out: LNCap/AR IC50
Procedure, shortened: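 LNCaP/AR cells (1000/well, RPMI1640 + 10% FBS) were treated for 6 days at 37 °C with 9-point 3-fold dilutions from 10 μM final, 0.1% DMSO, in duplicate. Viability was read by CCK-8 absorbance at 450 nm after 1 h, and IC50 came from a dose-response-inhibition fit.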

Androgen receptor (AR) = test: Down-regulation/degradation of AR determined by Western blot in CWR22RV1 cells; details: concentration 100 nM, 24 h
Procedure: as §1

22RV1 cells = test: Inhibition of the proliferation of drug-resistant prostate cancer cell 22RV1 (CCK-8); details: Homo sapiens; 22RV1 cells (enzalutamide-resistant), same method
Procedure, shortened: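 22RV1 cells, 1000/well in RPMI1640 with 10% FBS, treated in duplicate with 9-point 3-fold dilutions from 10 μM (0.1% DMSO final). After 6 days at 37 °C, CCK-8 added for 1 h and OD450 read. IC50 from dose-response inhibition fit.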

[1] = LNCaP/AR cells, 6 days culture, CCK-8

| SMILES | IC50 (LNCaP/AR cells; [1]) [nM] | IC50 (22RV1 cells) [nM] | BRD4 (% degradation) (BRD4) | AR (% degradation) (Androgen receptor (AR)) | IC50 (LNCaP/AR cells; LNCaP/AR) [nM] |
| --- | --- | --- | --- | --- | --- |
| Cc1ccc(-c2c(C)noc2C)cc1N(C[C@H]1CC[C@H](CNc2ccc3c(c2)C(=O)N(C2CCC(=O)NC2=O)C3=O)CC1)c1ccc(C2(C#N)CC2)cc1 (stereo partly shown) [Compound 149] | < 100 | < 100 | A (>80% of the target protein was degraded) | A (>80% of the target protein was degraded) |  |
| Cc1ccc(-c2c(C)noc2C)cc1N(CC1CCN(C2CN(c3cc4c(cc3F)CN(C3CCC(=O)NC3=O)C4=O)C2)CC1)c1ccc(C2(C#N)CC2)cc1 (stereo not shown) [Compound 159] | < 100 | < 100 | B (79%-50% of the target protein was degraded) | C (49%-20% of the target protein was degraded) |  |
| Cc1ccc(-c2c(C)noc2C)cc1N(CCCCNc1ccc2c(c1)C(=O)N(C1CCC(=O)NC1=O)C2=O)c1ccc(C#N)c(Cl)c1 (stereo not shown) [Compound 165, 2-Chloro-4-((5-(3,5-dimethylisoxazol-4-yl)-2-methylphenyl)(4-((2-(2,6-dioxopiperidin-3)-1,3-dioxyisoindolin-5-yl)amino)butyl)amino)benzonitrile] |  | > 2000 | A (>80% of the target protein was degraded) | C (49%-20% of the target protein was degraded) | 501 to 2000 |
| Cc1ccc(-c2c(C)noc2C)cc1N(C[C@H]1CC[C@H](CNc2cc3c(cc2F)CN(C2CCC(=O)NC2=O)C3=O)CC1)c1ccc(C2(C#N)CC2)cc1 (stereo partly shown) [Compound 168] | < 100 | < 100 | A (>80% of the target protein was degraded) | C (49%-20% of the target protein was degraded) |  |
| Cc1ccc(-c2c(C)noc2C)cc1N(C[C@H]1CC[C@H](CNc2cc3c(cc2F)C(=O)N(C2CCC(=O)NC2=O)C3)CC1)c1ccc(C2(C#N)CC2)cc1 (stereo partly shown) [Compound 169] | 101 to 500 | < 100 | B (79%-50% of the target protein was degraded) | C (49%-20% of the target protein was degraded) |  |
| Cc1ccc(-c2c(C)noc2C)cc1N(C[C@H]1CC[C@H](CNc2ccc3c(c2)CN(C2CCC(=O)NC2=O)C3=O)CC1)c1ccc(C2(C#N)CC2)cc1 (stereo partly shown) [Compound 194] | 101 to 500 | < 100 | D (<20% of the target protein was degraded) | D (<20% of the target protein was degraded) |  |

The next lines start with results.

| IC50 (LNCaP/AR cells; [1]) [nM] | IC50 (22RV1 cells) [nM] | SMILES | BRD4 (% degradation) (BRD4) | AR (% degradation) (Androgen receptor (AR)) | IC50 (LNCaP/AR cells; LNCaP/AR) [nM] |
| --- | --- | --- | --- | --- | --- |
| 501 to 2000 | 101 to 500 | Cc1ccc(-c2c(C)noc2C)cc1N(CCCOC1(C)CN(c2ccc3c(c2)C(=O)N(C2CCC(=O)NC2=O)C3=O)C1)c1ccc(C2(C#N)CC2)cc1 (stereo not shown) [Compound 140] | C (49%-20% of the target protein was degraded) | D (<20% of the target protein was degraded) |  |
| < 100 | < 100 | Cc1ccc(-c2c(C)noc2C)cc1N(CC1CN(C2CN(c3cc4c(cc3F)C(=O)N(C3CCC(=O)NC3=O)C4)C2)C1)c1ccc(C2(C#N)CC2)cc1 (stereo not shown) [Compound 157] | A (>80% of the target protein was degraded) | B (79%-50% of the target protein was degraded) |  |
| 501 to 2000 | 101 to 500 | Cc1ccc(-c2c(C)noc2C)cc1N(CCCNc1ccc2c(c1)C(=O)N(C1CCC(=O)NC1=O)C2=O)c1ccc(C2(C#N)CC2)cc1 (stereo not shown) [Compound 172, 1-(4-((5-(3,5-Dimethylisoxazol-4-yl)-2-methylphenyl)(3-((2-(2,6-dioxopiperidin-3-yl)-1,3-dioxoisoindolin-5-yl)amino)propyl)amino)phenyl)cyclopropane-1-nitrile] | D (<20% of the target protein was degraded) | D (<20% of the target protein was degraded) |  |
| 501 to 2000 | < 100 | Cc1ccc(-c2c(C)noc2C)cc1N(CC(C)OC1CN(c2ccc3c(c2)C(=O)N(C2CCC(=O)NC2=O)C3=O)C1)c1ccc(C2(C#N)CC2)cc1 (stereo not shown) [Compound 174, 1-(4-((5-(3,5-Dimethylisoxazol-4-yl)-2-methylphenyl)(2-((1-(2-(2,6-dioxopiperidin-3-yl)-1,3-dioxoisoindolin-5-yl)azacyclobutane-3-yl)oxy)propyl)amino)phenyl)cyclopropane-1-nitrile] | D (<20% of the target protein was degraded) | D (<20% of the target protein was degraded) |  |
| < 100 | < 100 | Cc1ccc(-c2c(C)noc2C)cc1N(CC(C)OC1CN(c2cc3c(cc2F)C(=O)N(C2CCC(=O)NC2=O)C3)C1)c1ccc(C2(C#N)CC2)cc1 (stereo not shown) [Compound 178, 1-(4-((5-(3,5-dimethylisoxazol-4-yl)-2-methylphenyl)(2-((1-(2-(2,6-dioxopiperidin-3-yl)-6-fluoro-1-oxoisoindolin-5-yl)azetidin-3-yl)oxy)propyl)amino)phenyl)cyclopropane-1-nitrile] | A (>80% of the target protein was degraded) | B (79%-50% of the target protein was degraded) |  |
| < 100 | < 100 | Cc1ccc(-c2c(C)noc2C)cc1N(CC(C)OC1CN(c2ccc3c(c2)CN(C2CCC(=O)NC2=O)C3=O)C1)c1ccc(C2(C#N)CC2)cc1 (stereo not shown) [Compound 180, 1-(4-((5-(3,5-dimethylisoxazol-4-yl)-2-methylphenyl)(2-((1-(2-(2,6-dioxopiperidin-3-yl)-1-oxoisoindolin-5-yl)azacyclobutane-3-yl)oxy)propyl)amino)phenyl)cyclopropane-1-nitrile] | A (>80% of the target protein was degraded) | D (<20% of the target protein was degraded) |  |
| < 100 | < 100 | Cc1ccc(-c2c(C)noc2C)cc1N(C[C@H]1CC[C@H](CNc2ccc3c(c2)C(=O)N(C2CCC(=O)NC2=O)C3)CC1)c1ccc(C2(C#N)CC2)cc1 (stereo partly shown) [Compound 193] | B (79%-50% of the target protein was degraded) | D (<20% of the target protein was degraded) |  |
